Measurements: PubChem BioAssay AID256 (DTP/NCI, 2004)
Several values for one entry are separate records, joined by “and”; a condition that tells them apart may be missing. Equal values may be shown once. Toxic doses and inconclusive results are not listed. Rule for the calls: active = survival T/C of 150% or more; inactive = T/C below 125% in these data.

System: CD2F1 mice, L1210 leukemia ip, survival T/C
Test: NCI In Vivo Anticancer Drug Screen. Data for tumor model L1210 Leukemia (intraperitoneal) in CD2F1 (CDF1) mice
Details: higher = longer survival
Procedure, shortened: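 Compound-dosed mice with transplantable tumor versus matched vehicle controls; endpoint ratio T/C reported.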

[1] = endpoint: mean survival time, dose: 100.0 mg/kg/injection, schedule: Q04DX003 (ip), vehicle: saline sonified
[2] = endpoint: mean survival time, dose: 200.0 mg/kg/injection, schedule: Q04DX003 (ip), vehicle: saline sonified
[3] = endpoint: mean survival time, dose: 400.0 mg/kg/injection, schedule: Q04DX003 (ip), vehicle: saline sonified
[4] = endpoint: mean survival time, dose: 100.0 mg/kg/injection, schedule: Q01DX009 (ip), vehicle: saline with Tween-80
[5] = endpoint: mean survival time, dose: 100.0 mg/kg/injection, schedule: Q04DX002 (ip), vehicle: saline with Tween-80
[6] = endpoint: mean survival time, dose: 100.0 mg/kg/injection, schedule: Q04DX003 (ip), vehicle: saline with Tween-80
[7] = endpoint: mean survival time, dose: 200.0 mg/kg/injection, schedule: Q01DX009 (ip), vehicle: saline with Tween-80
[8] = endpoint: mean survival time, dose: 200.0 mg/kg/injection, schedule: Q04DX002 (ip), vehicle: saline with Tween-80
[9] = endpoint: mean survival time, dose: 200.0 mg/kg/injection, schedule: Q04DX003 (ip), vehicle: saline with Tween-80
[10] = endpoint: mean survival time, dose: 400.0 mg/kg/injection, schedule: Q01DX009 (ip), vehicle: saline with Tween-80
[11] = endpoint: mean survival time, dose: 400.0 mg/kg/injection, schedule: Q04DX002 (ip), vehicle: saline with Tween-80
[12] = endpoint: mean survival time, dose: 400.0 mg/kg/injection, schedule: Q04DX003 (ip), vehicle: saline with Tween-80
[13] = endpoint: median survival time, dose: 25.0 mg/kg/injection, schedule: Q01DX009 (ip), vehicle: saline with Tween-80
[14] = endpoint: median survival time, dose: 50.0 mg/kg/injection, schedule: Q01DX009 (ip), vehicle: saline with Tween-80
[15] = endpoint: mean survival time, dose: 100.0 mg/kg/injection, schedule: Q04DX003 (ip), vehicle: saline
[16] = endpoint: mean survival time, dose: 200.0 mg/kg/injection, schedule: Q04DX003 (ip), vehicle: saline
[17] = endpoint: mean survival time, dose: 100.0 mg/kg/injection, schedule: Q01DX001 (ip), vehicle: saline
[18] = endpoint: mean survival time, dose: 200.0 mg/kg/injection, schedule: Q01DX001 (ip), vehicle: saline
[19] = endpoint: mean survival time, dose: 400.0 mg/kg/injection, schedule: Q01DX001 (ip), vehicle: saline

Measured: T/C

Clc1nc(Cl)c(Nc2ccn[nH]2)nc1Cl
inactive: [1] 100 % of control | [2] 98 % of control | [3] 95 % of control

CC(=O)OC1CCC2(C)C(=CC=C3C2=CCC2(C)C3CCC2C(C)/C=C\C(C)C(C)C)C1 (centres undefined)
inactive: endpoint: mean survival time, dose: 50.0 mg/kg/injection, schedule: Q01DX009 (ip), vehicle: Klucel (hydroxypropylcellulose) (HPC) 96 % of control | endpoint: mean survival time, dose: 100.0 mg/kg/injection, schedule: Q01DX009 (ip), vehicle: Klucel (hydroxypropylcellulose) (HPC) 93 % of control | endpoint: mean survival time, dose: 200.0 mg/kg/injection, schedule: Q01DX009 (ip), vehicle: Klucel (hydroxypropylcellulose) (HPC) 101 % of control

CC(C)C12CCC(=O)C=C1CCCC2O (centres undefined)
inactive: [1] 100 % of control | [2] 100 % of control | [3] 97 % of control

CCOC(=O)c1ccc(NC(=O)OCc2ccco2)cc1
inactive: [4] 92 % of control and 98 % of control | [5] 88 % of control and 102 % of control | [6] 94 % of control | [7] 92 % of control and 100 % of control | [8] 86 % of control and 91 % of control | [9] 87 % of control | [10] 113 % of control and 96 % of control | [11] 87 % of control and 88 % of control | [12] 89 % of control

Nc1ccc(N=Nc2ccc(S(=O)(=O)O)cc2)cc1
inactive: [6] 97 % of control | [9] 93 % of control | [12] 97 % of control

CCCCCCCCOCCOCCOCCOCCOCCCCCCCC
inactive: [5] 102 % of control | [8] 98 % of control | [11] 102 % of control

CC(=O)OCC(=O)[C@@]1(O)CC[C@H]2[C@@H]3CCC4=CC(=O)C=C[C@]4(C)[C@H]3C(=O)C[C@@]21C
inactive: endpoint: mean survival time, dose: 12.5 mg/kg/injection, schedule: Q04DX003 (ip), vehicle: Klucel (hydroxypropylcellulose) (HPC) 101 % of control | endpoint: mean survival time, dose: 25.0 mg/kg/injection, schedule: Q04DX003 (ip), vehicle: Klucel (hydroxypropylcellulose) (HPC) 109 % of control | endpoint: mean survival time, dose: 50.0 mg/kg/injection, schedule: Q04DX003 (ip), vehicle: Klucel (hydroxypropylcellulose) (HPC) 100 % of control

O=C(Nc1ccc(OCC2=NCCN2)cc1)c1ccc(C(=O)Nc2ccc(OCC3=NCCN3)cc2)cc1
inactive: endpoint: median survival time, dose: 3.12 mg/kg/injection, schedule: Q01DX009 (ip), vehicle: saline with Tween-80 102 % of control | endpoint: median survival time, dose: 6.25 mg/kg/injection, schedule: Q01DX009 (ip), vehicle: saline with Tween-80 96 % of control | endpoint: median survival time, dose: 12.5 mg/kg/injection, schedule: Q01DX009 (ip), vehicle: saline with Tween-80 98 % of control | [13] 101 % of control | [14] 98 % of control

CN1CC2C3CCC(C3)C2(C)C1O (centres undefined)
inactive: endpoint: mean survival time, dose: 50.0 mg/kg/injection, schedule: Q04DX002 (ip), vehicle: saline with Tween-80 103 % of control | [5] 103 % of control | [8] 87 % of control

NCc1ncn[nH]1
inactive: [15] 100 % of control | [16] 96 % of control

Cc1cccc2c1CCC(OC(=O)c1cc([N+](=O)[O-])cc([N+](=O)[O-])c1)C2 (centres undefined)
inactive: [4] 92 % of control | endpoint: mean survival time, dose: 100.0 mg/kg/injection, schedule: Q04DX003 (ip), vehicle: acetone 98 % of control | endpoint: mean survival time, dose: 200.0 mg/kg/injection, schedule: Q04DX003 (ip), vehicle: acetone 108 % of control | [9] 89 % of control | [10] 97 % of control | endpoint: mean survival time, dose: 400.0 mg/kg/injection, schedule: Q04DX003 (ip), vehicle: acetone 101 % of control

OCC1OC(c2cnn(-c3ccccc3)n2)C(O)C1O (centres undefined)
inactive: endpoint: median survival time, dose: 12.5 mg/kg/injection, schedule: Q01DX005 (ip), vehicle: water 103 % of control | endpoint: median survival time, dose: 25.0 mg/kg/injection, schedule: Q01DX005 (ip), vehicle: water 103 % of control | endpoint: median survival time, dose: 50.0 mg/kg/injection, schedule: Q01DX005 (ip), vehicle: water 102 % of control | endpoint: median survival time, dose: 100.0 mg/kg/injection, schedule: Q01DX005 (ip), vehicle: water 104 % of control | endpoint: median survival time, dose: 200.0 mg/kg/injection, schedule: Q01DX005 (ip), vehicle: water 102 % of control

O=C(c1ccccc1)C1(Br)CCCCC1
inactive: endpoint: mean survival time, dose: 50.0 mg/kg/injection, schedule: Q04DX003 (ip), vehicle: saline 95 % of control | endpoint: mean survival time, dose: 100.0 mg/kg/injection, schedule: Q04DX003 (ip), vehicle: Klucel (hydroxypropylcellulose) (HPC) 101 % of control | [15] 96 % of control | endpoint: mean survival time, dose: 200.0 mg/kg/injection, schedule: Q04DX003 (ip), vehicle: Klucel (hydroxypropylcellulose) (HPC) 96 % of control | [16] 93 % of control | endpoint: mean survival time, dose: 400.0 mg/kg/injection, schedule: Q04DX003 (ip), vehicle: Klucel (hydroxypropylcellulose) (HPC) 106 % of control | endpoint: mean survival time, dose: 400.0 mg/kg/injection, schedule: Q04DX003 (ip), vehicle: saline 98 % of control

CC(C)OP(=O)(OCCO)C(Cl)Cl (centres undefined)
inactive: [17] 97 % of control | [18] 94 % of control | [19] 96 % of control

Clc1nnc(Nc2ccccc2)c2ccccc12
inactive: endpoint: mean survival time, dose: 100.0 mg/kg/injection, schedule: Q04DX003 (ip), vehicle: other 94 % of control | endpoint: mean survival time, dose: 200.0 mg/kg/injection, schedule: Q04DX003 (ip), vehicle: other 88 % of control | endpoint: mean survival time, dose: 400.0 mg/kg/injection, schedule: Q04DX003 (ip), vehicle: other 88 % of control

Cc1cc(Br)c2nsnc2c1[N+](=O)[O-]
inactive: [13] 97 % of control | [14] 100 % of control | endpoint: median survival time, dose: 100.0 mg/kg/injection, schedule: Q01DX009 (ip), vehicle: saline with Tween-80 101 % of control | endpoint: median survival time, dose: 200.0 mg/kg/injection, schedule: Q01DX009 (ip), vehicle: saline with Tween-80 100 % of control | endpoint: median survival time, dose: 400.0 mg/kg/injection, schedule: Q01DX009 (ip), vehicle: saline with Tween-80 101 % of control

ClCC1(CCl)COC(c2ccccc2)OC1
inactive: [4] 95 % of control | [7] 95 % of control | [10] 94 % of control

CC1C(=O)CC(C)(C)C=CC1C1C=CC(C)(C)CC(=O)C1C (centres undefined)
inactive: endpoint: mean survival time, dose: 75.0 mg/kg/injection, schedule: Q01DX001 (ip), vehicle: other 97 % of control | endpoint: mean survival time, dose: 150.0 mg/kg/injection, schedule: Q01DX001 (ip), vehicle: other 97 % of control | endpoint: mean survival time, dose: 300.0 mg/kg/injection, schedule: Q01DX001 (ip), vehicle: other 96 % of control

CC(=O)NCC(C)C
inactive: [17] 98 % of control | [18] 97 % of control | [19] 104 % of control

COc1ccc(Nc2nc(N)nc3c2ncn3C2OC(CO)C(O)C2O)cc1 (centres undefined)
inactive: endpoint: mean survival time, dose: 12.5 mg/kg/injection, schedule: Q01DX005 (ip), vehicle: distilled water + Tween-80 96 % of control | endpoint: mean survival time, dose: 25.0 mg/kg/injection, schedule: Q01DX005 (ip), vehicle: distilled water + Tween-80 98 % of control | endpoint: mean survival time, dose: 50.0 mg/kg/injection, schedule: Q01DX005 (ip), vehicle: distilled water + Tween-80 104 % of control | endpoint: mean survival time, dose: 100.0 mg/kg/injection, schedule: Q01DX005 (ip), vehicle: distilled water + Tween-80 111 % of control
